pIC50: −log10 of the molar value.

The nature of data set [1]: DRUGMATRIX: Calcium Channel Type L, Phenylalkylamine radioligand binding (ligand: [3H] (-)-Desmethoxyverapamil (D-888)). The data set is classed as cell membranes, Rattus norvegicus, Wistar, Brain, Membrane. The conditions noted are these: Not Active = under 50% inhibition at 10 µM.
Data set [2] deals with Cytochrome P450 3A4 (Homo sapiens, UniProt P08684). The following applies: bti-tn-5b1-4.
Data set [3] has as its target Protein kinase C alpha type (Homo sapiens, UniProt P17252). In kind it is cell-based. The following applies: sf9.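 Note: inhibition of PKCalpha kinase activity measured in an enzyme assay with histone as the phosphorylation substrate; in other assays of this panel Not Active means under 50% inhibition at 10 µM.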
The target in data set [4] is T1, Neuropeptide Y receptor type 2 (Homo sapiens, UniProt P49146). Note: in other assays of this panel Not Active means under 50% inhibition at 10 µM.
T1 sequence (P49146 whole entry): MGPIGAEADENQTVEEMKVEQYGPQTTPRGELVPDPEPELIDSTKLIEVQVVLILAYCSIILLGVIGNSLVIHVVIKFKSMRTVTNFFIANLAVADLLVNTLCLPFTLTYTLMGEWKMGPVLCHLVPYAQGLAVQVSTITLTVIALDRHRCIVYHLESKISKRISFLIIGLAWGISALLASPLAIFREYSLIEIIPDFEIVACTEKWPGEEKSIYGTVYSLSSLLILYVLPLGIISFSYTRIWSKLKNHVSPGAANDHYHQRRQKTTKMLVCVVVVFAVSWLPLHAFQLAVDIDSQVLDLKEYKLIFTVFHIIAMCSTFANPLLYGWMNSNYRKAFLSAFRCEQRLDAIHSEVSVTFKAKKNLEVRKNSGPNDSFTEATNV
In kind it is cell membranes, Membrane. The conditions noted are these: kan-ts.

For data set [5], the target named is C-C chemokine receptor type 5 (Homo sapiens, UniProt P51681). The data set is classed as cell membranes, Membrane. The following applies: hek293. Note: in other assays of this panel Not Active means under 50% inhibition at 10 µM.
In data set [6] the target is T2, Caspase-1 (Homo sapiens, UniProt P29466).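 Note: Caspase-1 enzyme inhibition assay with a peptide substrate; in other assays of this panel Not Active means under 50% inhibition at 10 µM.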
T2 sequence (P29466 whole entry): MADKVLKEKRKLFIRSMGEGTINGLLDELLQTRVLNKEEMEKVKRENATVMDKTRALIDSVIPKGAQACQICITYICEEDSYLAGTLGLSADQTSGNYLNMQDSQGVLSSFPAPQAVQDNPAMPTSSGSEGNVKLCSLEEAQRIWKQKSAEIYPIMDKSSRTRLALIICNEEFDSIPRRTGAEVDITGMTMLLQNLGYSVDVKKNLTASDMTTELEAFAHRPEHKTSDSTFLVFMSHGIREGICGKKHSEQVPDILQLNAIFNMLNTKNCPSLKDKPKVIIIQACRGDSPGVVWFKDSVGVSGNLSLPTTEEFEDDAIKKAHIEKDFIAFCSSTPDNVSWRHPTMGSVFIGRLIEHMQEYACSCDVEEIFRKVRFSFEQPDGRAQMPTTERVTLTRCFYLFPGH
Further details: species or system Escherichia coli.

Data set [7] is described as follows: DRUGMATRIX: Potassium Channel [KATP] radioligand binding (ligand: [3H] Glyburide). In kind it is cell membranes, Membrane. The following applies: hit-t15; Not Active = under 50% inhibition at 10 µM.
The nature of data set [8]: DRUGMATRIX: Phosphodiesterase PDE3 enzyme inhibition (substrate: [3H]cAMP + cAMP). The following applies: platelet; Not Active = under 50% inhibition at 10 µM. In kind it is tissue-based, Homo sapiens.

Cytochrome P450 3A4, sequence (P08684 whole entry): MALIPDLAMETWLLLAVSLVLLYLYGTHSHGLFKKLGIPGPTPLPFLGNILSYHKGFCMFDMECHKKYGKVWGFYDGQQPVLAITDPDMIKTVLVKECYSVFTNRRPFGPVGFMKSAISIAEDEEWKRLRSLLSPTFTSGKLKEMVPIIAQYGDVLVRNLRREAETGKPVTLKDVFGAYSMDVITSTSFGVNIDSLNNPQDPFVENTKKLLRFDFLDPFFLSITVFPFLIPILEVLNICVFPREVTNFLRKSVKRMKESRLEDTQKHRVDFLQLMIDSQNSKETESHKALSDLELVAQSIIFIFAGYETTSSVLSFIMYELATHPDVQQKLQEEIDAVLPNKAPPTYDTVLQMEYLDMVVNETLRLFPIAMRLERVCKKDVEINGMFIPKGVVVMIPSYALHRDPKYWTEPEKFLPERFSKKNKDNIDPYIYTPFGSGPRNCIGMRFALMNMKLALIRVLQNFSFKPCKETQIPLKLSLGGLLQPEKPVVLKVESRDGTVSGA
C-C chemokine receptor type 5, sequence (P51681 whole entry): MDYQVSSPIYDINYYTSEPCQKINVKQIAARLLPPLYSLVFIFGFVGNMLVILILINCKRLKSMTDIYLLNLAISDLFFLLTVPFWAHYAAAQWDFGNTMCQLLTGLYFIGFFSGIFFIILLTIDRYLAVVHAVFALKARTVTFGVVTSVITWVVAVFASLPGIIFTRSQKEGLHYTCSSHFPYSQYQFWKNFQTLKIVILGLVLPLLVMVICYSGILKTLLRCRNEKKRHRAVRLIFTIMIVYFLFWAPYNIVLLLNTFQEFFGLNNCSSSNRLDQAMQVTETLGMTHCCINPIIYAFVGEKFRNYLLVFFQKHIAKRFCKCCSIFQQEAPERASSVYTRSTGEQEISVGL

As for `Cc1c(C)c2c(c(C)c1O)CCC(C)(COc1ccc(CC3SC(=O)NC3=O)cc1)O2` (stereo not drawn) [TROGLITAZONE], the IC50 entry in data set [1], in data set [2], in data set [3], in data set [4], in data set [5] and in data set [6] was “Not Active” each time. Further, the IC50 result in data set [7] and in data set [8] was “Not Active” each time. Also, the Ki entry in data set [1], in data set [2], in data set [7] and in data set [8] was “Not Active” in each case.
With `c1ccc([C@H]2CN3CCSC3=N2)cc1` [LEVAMISOLE], the IC50 entry in data set [1], in data set [2], in data set [3], in data set [4], in data set [5] and in data set [6] was “Not Active” each time. The IC50 result in data set [7] and in data set [8] was “Not Active” throughout. For the same molecule, the Ki result in data set [1], in data set [2], in data set [7] and in data set [8] was “Not Active” in each case.
Regarding `CC[C@]1(O)C[C@H]2CN(CCc3c([nH]c4ccccc34)[C@@](C(=O)OC)(c3cc4c(cc3OC)N(C=O)[C@H]3[C@@](O)(C(=O)OC)[C@H](OC(C)=O)[C@]5(CC)C=CCN6CC[C@]43[C@@H]65)C2)C1` [VINCRISTINE], the IC50 result in data set [1], in data set [2], in data set [3], in data set [4], in data set [5] and in data set [6] was “Not Active” in each case. The IC50 result in data set [7] and in data set [8] was “Not Active” throughout. Moreover, the Ki result in data set [1], in data set [2], in data set [7] and in data set [8] was “Not Active” in each case.
Consider `O=c1ncn2nc(Sc3ccc(F)cc3F)ccc2c1-c1c(Cl)cccc1Cl` [NEFLAMAPIMOD], for which the IC50 result in data set [1], in data set [2], in data set [3], in data set [4], in data set [5] and in data set [6] was “Not Active” throughout. Further, the IC50 result in data set [7] and in data set [8] was “Not Active” in each case. Further, the Ki entry in data set [1], in data set [2], in data set [7] and in data set [8] was “Not Active” each time.
`NS(=O)(=O)c1cc2c(cc1Cl)NC(C(Cl)Cl)NS2(=O)=O` (stereo not drawn) [TRICHLORMETHIAZIDE]: the IC50 entry in data set [1], in data set [2], in data set [3], in data set [4], in data set [5] and in data set [6] was “Not Active” each time. Besides, the IC50 entry in data set [7] and in data set [8] was “Not Active” each time. Moreover, the Ki result in data set [1], in data set [2], in data set [7] and in data set [8] was “Not Active” each time.
As for `CCCOc1ccccc1-c1nc2nn[nH]c2c(=O)[nH]1` [ZAPRINAST], the IC50 result in data set [1], in data set [2], in data set [3], in data set [4], in data set [5] and in data set [6] was “Not Active” each time. For the same molecule, the IC50 result in data set [7] and in data set [8] was “Not Active” in each case. The Ki result in data set [1], in data set [2], in data set [7] and in data set [8] was “Not Active” each time.
As for `N#CC(C#N)=Cc1ccc(O)c(O)c1` [TYRPHOSTIN 23], the IC50 entry in data set [1], in data set [2], in data set [3], in data set [4], in data set [5] and in data set [6] was “Not Active” in each case. Besides, the IC50 entry in data set [7] and in data set [8] was “Not Active” each time. Further, the Ki entry in data set [1], in data set [2], in data set [7] and in data set [8] was “Not Active” throughout.
For `OCCN(CCO)c1nc(N2CCCCC2)c2nc(N(CCO)CCO)nc(N3CCCCC3)c2n1` [DIPYRIDAMOLE], the IC50 entry in data set [1], in data set [3], in data set [4], in data set [5], in data set [6] and in data set [7] was “Not Active” each time. The IC50 result in data set [8] is recorded as “Not Active”. Further, the Ki result in data set [1], in data set [7] and in data set [8] was “Not Active” each time.
Take `Cn1ccnc1S` [METHIMAZOLE]: the IC50 result in data set [1], in data set [3], in data set [4], in data set [5], in data set [6] and in data set [7] was “Not Active” throughout. Also, in data set [8], the IC50 entry was “Not Active”. Also, the Ki entry in data set [1], in data set [7] and in data set [8] was “Not Active” throughout.
In the case of `CC/C(=C(\c1ccccc1)c1ccc(OCCN(C)C)cc1)c1ccccc1` [TAMOXIFEN], the IC50 result in data set [2], in data set [3], in data set [4], in data set [5] and in data set [6] was “Not Active” each time. In data set [2], the Ki entry is on record as “Not Active”.
Turning to `CO[C@H]1/C=C/O[C@@]2(C)Oc3c(C)c(O)c4c(O)c(c(/C=N/N5CCN(C)CC5)c(O)c4c3C2=O)NC(=O)/C(C)=C\C=C\[C@H](C)[C@H](O)[C@@H](C)[C@@H](O)[C@@H](C)[C@H](OC(C)=O)[C@@H]1C` [RIFAMPIN], the IC50 entry in data set [1], in data set [3], in data set [4], in data set [5], in data set [7] and in data set [8] was “Not Active” each time. In addition, the Ki entry in data set [1], in data set [7] and in data set [8] was “Not Active” in each case. Moreover, the pIC50 in data set [6] (read-out: IC50) is 5.08.
As for `Nc1nc2ccc(OC(F)(F)F)cc2s1` [RILUZOLE], the IC50 entry in data set [1], in data set [3], in data set [4], in data set [5], in data set [6] and in data set [7] was “Not Active” each time. Also, the IC50 result in data set [8] was “Not Active”. Also, the Ki entry in data set [1], in data set [7] and in data set [8] was “Not Active” each time.
Take `CN1CCN(CCCN2c3ccccc3Sc3ccc(Cl)cc32)CC1` [PROCHLORPERAZINE]: the IC50 result in data set [2], in data set [3], in data set [4], in data set [5] and in data set [6] was “Not Active” throughout. For the same molecule, the Ki entry in data set [2] is reported as “Not Active”.
As for `CCOC(=O)N1CCC(=C2c3ccc(Cl)cc3CCc3cccnc32)CC1` [LORATADINE], the IC50 entry in data set [1], in data set [3], in data set [4], in data set [5], in data set [6] and in data set [7] was “Not Active” in each case. Moreover, in data set [8], the IC50 result is “Not Active”. The Ki result in data set [1], in data set [7] and in data set [8] was “Not Active” in each case.
With `Cc1nc2n(c(=O)c1CCN1CCC(c3noc4cc(F)ccc34)CC1)CCCC2` [RISPERIDONE], the IC50 result in data set [3], in data set [4], in data set [5] and in data set [6] was “Not Active” each time.
For `Nc1nc2nc[nH]c2c(=S)[nH]1` [THIOGUANINE], the IC50 result in data set [1], in data set [2], in data set [3], in data set [4], in data set [5] and in data set [6] was “Not Active” each time. For the same molecule, the IC50 result in data set [8] is on record as “Not Active”. For the same molecule, the Ki result in data set [1], in data set [2] and in data set [8] was “Not Active” in each case.
As to `CCCCc1oc2ccccc2c1C(=O)c1cc(I)c(OCCN(CC)CC)c(I)c1` [AMIODARONE], the IC50 result in data set [3], in data set [4], in data set [5] and in data set [6] was “Not Active” in each case.
As to `N[C@@H](Cc1cc(I)c(Oc2ccc(O)c(I)c2)c(I)c1)C(=O)O` [LIOTHYRONINE], the IC50 result in data set [3], in data set [4], in data set [5] and in data set [6] was “Not Active” each time.

One may read the pIC50 as the IC50 on a negative log10 scale, so that one unit is a factor of ten.

The values above are taken from ChEMBL document CHEMBL1909046, “DrugMatrix in vitro pharmacology data”.
